Experimental data: ChEMBL document CHEMBL2010730, “An example of designed multiple ligands spanning protein classes: dual MCH-1R antagonists/DPPIV inhibitors” (Bioorg Med Chem Lett, 2012)

What was measured:
[1] = biological target: T1, Melanin-concentrating hormone receptor 1 (Homo sapiens, UniProt Q99705); assay: Antagonist activity at human MCH1R expressed in CHO cells assessed as inhibition of MCH-induced response at 5 uM; assay type: functional, cell-based
[2] = biological target: T1, Melanin-concentrating hormone receptor 1; assay: Antagonist activity at human MCH1R expressed in CHO cells assessed as inhibition of MCH-induced response; assay type: functional, cell-based
Dipeptidyl peptidase 4 [3] = biological target: T2, Dipeptidyl peptidase 4 (Homo sapiens, UniProt P27487); assay: Inhibition of human recombinant DPP4 using H-Gly-Pro-7-amino-4-methylcoumarin as substrate assessed as inhibition of 7-amino-4-methylcoumarin formation after 30 mins by fluorimetry
T2 sequence (P27487 whole entry): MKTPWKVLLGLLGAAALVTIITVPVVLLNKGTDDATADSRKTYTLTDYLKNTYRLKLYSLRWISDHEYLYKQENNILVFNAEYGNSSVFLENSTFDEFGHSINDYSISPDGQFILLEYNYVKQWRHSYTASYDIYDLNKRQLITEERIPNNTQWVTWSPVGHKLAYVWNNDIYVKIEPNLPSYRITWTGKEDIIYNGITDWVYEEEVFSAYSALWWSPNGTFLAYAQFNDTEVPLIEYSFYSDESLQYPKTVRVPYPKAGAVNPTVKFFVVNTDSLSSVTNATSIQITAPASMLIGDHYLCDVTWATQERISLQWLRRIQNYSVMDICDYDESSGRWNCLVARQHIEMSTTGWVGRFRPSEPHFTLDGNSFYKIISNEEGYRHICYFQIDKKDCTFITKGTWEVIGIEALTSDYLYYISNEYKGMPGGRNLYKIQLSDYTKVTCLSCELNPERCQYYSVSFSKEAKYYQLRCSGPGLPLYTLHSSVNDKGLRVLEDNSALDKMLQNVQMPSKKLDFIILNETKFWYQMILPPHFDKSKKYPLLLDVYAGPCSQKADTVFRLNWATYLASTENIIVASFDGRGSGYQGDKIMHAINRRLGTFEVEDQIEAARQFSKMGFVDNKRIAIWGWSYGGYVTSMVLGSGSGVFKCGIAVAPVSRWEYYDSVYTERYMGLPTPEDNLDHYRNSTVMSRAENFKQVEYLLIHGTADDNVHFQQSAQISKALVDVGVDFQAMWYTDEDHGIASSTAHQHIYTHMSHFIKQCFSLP

Dipeptidyl peptidase 8 = Dipeptidyl peptidase 8 (Homo sapiens, UniProt Q6V1X1); assay: Inhibition of DPP8
Chain of Dipeptidyl peptidase 8 (Q6V1X1 whole entry): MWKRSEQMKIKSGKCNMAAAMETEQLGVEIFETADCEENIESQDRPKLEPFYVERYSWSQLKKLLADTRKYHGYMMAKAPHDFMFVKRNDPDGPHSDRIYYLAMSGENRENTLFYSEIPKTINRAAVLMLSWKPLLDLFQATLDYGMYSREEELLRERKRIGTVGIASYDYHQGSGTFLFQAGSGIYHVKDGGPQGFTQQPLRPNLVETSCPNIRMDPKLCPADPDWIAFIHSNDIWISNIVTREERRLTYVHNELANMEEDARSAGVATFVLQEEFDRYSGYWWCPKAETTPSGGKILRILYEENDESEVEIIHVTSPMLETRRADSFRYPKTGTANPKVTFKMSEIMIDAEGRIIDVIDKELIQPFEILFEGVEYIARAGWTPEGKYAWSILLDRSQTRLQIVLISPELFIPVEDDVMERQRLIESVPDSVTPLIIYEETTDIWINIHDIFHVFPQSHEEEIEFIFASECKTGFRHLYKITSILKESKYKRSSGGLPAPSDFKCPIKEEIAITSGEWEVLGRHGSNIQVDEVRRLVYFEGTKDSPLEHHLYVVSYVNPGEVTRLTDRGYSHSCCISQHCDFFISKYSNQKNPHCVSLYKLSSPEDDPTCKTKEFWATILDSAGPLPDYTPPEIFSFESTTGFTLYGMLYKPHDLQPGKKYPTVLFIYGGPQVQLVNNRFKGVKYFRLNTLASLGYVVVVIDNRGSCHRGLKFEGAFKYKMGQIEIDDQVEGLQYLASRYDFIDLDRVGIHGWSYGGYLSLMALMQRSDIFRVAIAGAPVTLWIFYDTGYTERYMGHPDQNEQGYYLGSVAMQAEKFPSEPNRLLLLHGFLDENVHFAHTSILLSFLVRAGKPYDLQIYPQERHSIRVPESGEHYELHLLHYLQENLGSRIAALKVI

Dipeptidyl peptidase 9 = Dipeptidyl peptidase 9 (Homo sapiens, UniProt Q86TI2); assay: Inhibition of DPP9
Chain of Dipeptidyl peptidase 9 (Q86TI2 whole entry): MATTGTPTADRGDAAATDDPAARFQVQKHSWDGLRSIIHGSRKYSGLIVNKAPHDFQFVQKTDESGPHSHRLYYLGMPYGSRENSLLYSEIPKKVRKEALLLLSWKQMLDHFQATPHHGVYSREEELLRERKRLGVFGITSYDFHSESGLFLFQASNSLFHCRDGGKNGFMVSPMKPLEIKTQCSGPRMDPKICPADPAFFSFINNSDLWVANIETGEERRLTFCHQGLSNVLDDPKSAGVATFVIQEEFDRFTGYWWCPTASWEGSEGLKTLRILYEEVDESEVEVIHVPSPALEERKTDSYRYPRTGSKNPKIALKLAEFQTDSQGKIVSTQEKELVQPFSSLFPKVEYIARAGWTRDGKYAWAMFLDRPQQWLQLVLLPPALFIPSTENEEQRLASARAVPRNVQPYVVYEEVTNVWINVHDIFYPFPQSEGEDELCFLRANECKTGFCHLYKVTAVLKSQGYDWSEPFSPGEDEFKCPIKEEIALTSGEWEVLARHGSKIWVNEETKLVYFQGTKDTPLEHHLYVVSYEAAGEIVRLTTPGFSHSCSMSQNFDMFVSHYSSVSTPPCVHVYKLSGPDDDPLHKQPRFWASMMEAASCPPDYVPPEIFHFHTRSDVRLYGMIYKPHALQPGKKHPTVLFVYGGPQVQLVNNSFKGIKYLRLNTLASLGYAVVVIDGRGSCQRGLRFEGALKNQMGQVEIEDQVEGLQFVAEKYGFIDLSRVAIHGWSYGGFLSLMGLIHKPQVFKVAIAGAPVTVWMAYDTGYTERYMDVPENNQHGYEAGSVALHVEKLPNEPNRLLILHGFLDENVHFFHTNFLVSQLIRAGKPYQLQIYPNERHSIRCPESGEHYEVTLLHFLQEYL

Dipeptidyl peptidase 4 [4] = biological target: T2, Dipeptidyl peptidase 4; assay: Inhibition of DPP4
[5] = Lipophilicity, log D of the compound at pH 7.4; assay type: physicochemical; details: buffer
[6] = biological target: Voltage-gated inwardly rectifying potassium channel KCNH2 (Homo sapiens, UniProt Q12809)
Chain of Voltage-gated inwardly rectifying potassium channel KCNH2 (Q12809 whole entry): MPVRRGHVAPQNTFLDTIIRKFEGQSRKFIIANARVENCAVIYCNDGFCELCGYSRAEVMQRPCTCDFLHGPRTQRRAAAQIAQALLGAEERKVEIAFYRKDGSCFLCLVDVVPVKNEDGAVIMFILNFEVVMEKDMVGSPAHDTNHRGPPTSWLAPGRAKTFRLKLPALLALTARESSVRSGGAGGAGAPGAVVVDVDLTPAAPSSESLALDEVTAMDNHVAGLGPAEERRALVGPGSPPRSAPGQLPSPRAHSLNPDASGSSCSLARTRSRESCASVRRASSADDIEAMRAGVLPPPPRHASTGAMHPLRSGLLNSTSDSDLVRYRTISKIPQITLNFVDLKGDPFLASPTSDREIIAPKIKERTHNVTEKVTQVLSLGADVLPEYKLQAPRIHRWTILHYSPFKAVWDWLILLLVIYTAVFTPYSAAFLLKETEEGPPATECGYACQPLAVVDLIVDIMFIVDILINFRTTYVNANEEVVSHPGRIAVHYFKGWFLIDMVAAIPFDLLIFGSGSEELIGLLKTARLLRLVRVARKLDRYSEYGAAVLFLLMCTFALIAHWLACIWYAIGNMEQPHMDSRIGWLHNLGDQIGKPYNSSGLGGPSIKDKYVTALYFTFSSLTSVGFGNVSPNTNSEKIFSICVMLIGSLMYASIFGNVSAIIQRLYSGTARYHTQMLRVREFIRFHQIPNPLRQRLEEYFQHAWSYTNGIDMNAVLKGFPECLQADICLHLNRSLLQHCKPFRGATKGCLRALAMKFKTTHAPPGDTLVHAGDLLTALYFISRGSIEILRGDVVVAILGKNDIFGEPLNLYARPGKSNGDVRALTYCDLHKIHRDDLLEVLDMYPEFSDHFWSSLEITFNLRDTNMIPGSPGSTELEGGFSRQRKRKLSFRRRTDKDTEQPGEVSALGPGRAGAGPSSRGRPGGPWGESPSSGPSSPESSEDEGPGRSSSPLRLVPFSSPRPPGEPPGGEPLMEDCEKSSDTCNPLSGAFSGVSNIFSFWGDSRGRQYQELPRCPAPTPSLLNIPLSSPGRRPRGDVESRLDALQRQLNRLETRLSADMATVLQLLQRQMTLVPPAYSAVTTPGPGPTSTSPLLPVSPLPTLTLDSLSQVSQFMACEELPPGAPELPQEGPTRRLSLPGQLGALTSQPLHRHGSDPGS

[7] = biological target: T1, Melanin-concentrating hormone receptor 1; assay: Antagonist activity at human MCH1R expressed in forskolin-stimulated CHO cells assessed as inhibition of MCH-induced cAMP accumulation after 90 mins; assay type: functional, cell-based

T1 sequence (Q99705 whole entry): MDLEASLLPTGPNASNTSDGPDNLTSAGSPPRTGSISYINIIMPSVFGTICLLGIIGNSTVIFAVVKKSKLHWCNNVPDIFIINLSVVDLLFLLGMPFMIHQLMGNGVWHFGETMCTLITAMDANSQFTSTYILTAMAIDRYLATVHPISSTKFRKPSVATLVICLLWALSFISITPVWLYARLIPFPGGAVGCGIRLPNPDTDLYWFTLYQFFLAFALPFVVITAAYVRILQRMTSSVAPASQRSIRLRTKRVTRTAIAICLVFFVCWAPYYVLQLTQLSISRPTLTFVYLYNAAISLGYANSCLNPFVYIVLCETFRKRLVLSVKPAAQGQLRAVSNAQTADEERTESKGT

Compound	inhibition [1]	IC50 [2]	IC50 (Dipeptidyl peptidase 4 [3])	further results
N[C@H]1CN(c2ccc(-n3ccc(OCc4ccccc4)cc3=O)cn2)C[C@@H]1c1cc(F)ccc1F	104%	0.14 µM	1.65 µM	
N[C@H]1CN(c2ccc(CCNC(=O)c3ccc(OCC4CC4)cc3)cn2)C[C@@H]1c1cc(F)ccc1F	43%	3.8 µM		
N[C@H]1CN(c2ccc(-n3ccc(OCc4ccccc4)cc3=O)cn2)CC[C@@H]1c1cc(F)c(F)cc1F		0.44 µM	0.35 µM	IC50 (Dipeptidyl peptidase 8): > 50 µM; IC50 (Dipeptidyl peptidase 9): > 50 µM
N[C@H]1CN(c2ccc(-n3ccc(-c4ccccc4)cc3=O)cn2)C[C@@H]1c1cc(F)ccc1F	39%			
N[C@H]1CN(c2cc(-c3ccccc3)ncn2)CC[C@@H]1c1cc(F)c(F)cc1F				Ki (Dipeptidyl peptidase 4 [4]): 0.006 µM
CCCCOc1ccc2c(c1)CCN(c1ccc(N3C[C@H](c4cc(F)ccc4F)[C@@H](N)C3)nc1)C2=O	44%	4 µM		
CC(C)COc1ccc(CC(=O)Nc2ccc(N3C[C@H](c4cc(F)ccc4F)[C@@H](N)C3)nc2)cc1	35%			
N[C@H]1CN(c2ccc(-n3ccnc(CCCc4ccccc4)c3=O)cn2)C[C@@H]1c1cc(F)ccc1F	52%	> 3 µM		
N[C@H]1CN(c2ccc(-n3ccc(OCc4ccccc4)cc3=O)cn2)C[C@@H]1c1cc(F)c(F)cc1F		0.11 µM	1.1 µM	logD [5]: 3.4; IC50 [6]: 6.1 µM
N[C@@H]1CCN(c2ccc(-n3ccc(OCc4ccccc4)cc3=O)cn2)C1		0.02 µM	> 100 µM	Ki [7]: 0.006 µM; IC50 (Dipeptidyl peptidase 8): > 100 µM; IC50 (Dipeptidyl peptidase 9): > 100 µM
